For data set [1], the system named is TNF-alpha. As to the kind of experiment: Inhibition of LPS-induced TNF-alpha production in mice (plasma ELISA). Particulars: summary in words of Table 6, 50 or 100 mg/kg oral. In kind it is in vivo, mouse.
Data set [2] has as its system 3T3-L1 adipocytes. As to the kind of experiment: Stimulation of glucose uptake in differentiated 3T3-L1 adipocytes with 100 nM insulin. In kind it is cell-based. Particulars: Mus musculus, 48 h, vehicle set at 100%, read-out: Percent Stimulation of Glucose Uptake.
The next data set concerns PDE4. As to the kind of experiment: Inhibition of PDE4 enzyme activity. The class given is biochemical, human. As to conditions: for Percent Inhibition of Enzyme Activity, PDE4: PDE4 from human U-937 cells, 1 μM cAMP.
The target of another data set is T1, PDE3 (Homo sapiens, UniProt Q14432).
T1 construct: PDE3 partially purified from human platelets were used; from tissue; host or cells: human platelets
As to the kind of experiment: Inhibition of PDE3 enzyme activity. In kind it is biochemical. As to conditions: PDE3 from human platelets.

The test system of another data set is p44/42 MAP kinase. As to the kind of experiment: Inhibition of LPS-induced phosphorylation of p44/42 MAP kinase in RAW 264.7 gamma NO(-) cells (Western blot). The class given is cell-based, mouse. Particulars: data not shown.
For data set [3], the system named is human elutriated monocytes. As to the kind of experiment: Cell viability of human monocytes (MTS/PMS assay). Particulars: 30 μM. In kind it is cell-based.
For a further data set, the system named is DBA/1J mice. Put plainly: Collagen-induced arthritis in mice. The class given is in vivo, mouse. As to conditions: for arthritis clinical score (severity) compared with vehicle controls: FIG. 9.
The test system of data set [4] is 3T3-L1 adipocytes. Put plainly: Insulin-stimulated glucose uptake in 3T3-L1 adipocytes. In kind it is cell-based, mouse. As to conditions: 5 μM, 48 hours, different concentrations of insulin, versus vehicle, FIG. 2.
The test system of data set [5] is 3T3-L1 adipocytes. As to the kind of experiment: Glucose uptake in 3T3-L1 differentiated adipocytes (14C-deoxyglucose). The class given is cell-based, mouse. As to conditions: 48 hours with different concentrations, percentage of basal level, FIG. 1.
In data set [6] the test system is ob/ob mice. As to the kind of experiment: Glucose-lowering effect in ob/ob mice. In kind it is in vivo, mouse. Particulars: 10 mg/kg daily oral, p<0.05.
Data set [7] relates to TNF-alpha. Put plainly: Inhibition of LPS-induced TNF-alpha production in RAW264.7 cells (ELISA). In kind it is cell-based, mouse. Particulars: RAW264.7, 10, 30 or 100 μM, LPS 0.1 μg/ml 6 hours; effect approached dexamethasone 1 μM, FIG. 5. (An ELISA detects its analyte on a solid surface through an enzyme-linked reagent.)
Data set [8] concerns ob/ob mice. As to the kind of experiment: Lipid-lowering effects in ob/ob mice. The class given is in vivo, mouse. Particulars: 10 mg/kg daily oral, day 8, versus vehicle, p<0.05.
For a further data set, the system named is COX-1. Put plainly: COX-1 production in LPS-stimulated RAW264.7 cells (Western blot). As to conditions: LPS-stimulated RAW264.7, 10, 30 or 100 μM, FIG. 8. In kind it is cell-based, mouse. For orientation: A western blot detects proteins with antibodies after separation by electrophoresis.
The next data set relates to IL-6. Put plainly: Inhibition of LPS-induced IL-6 production in RAW264.7 cells (ELISA). In kind it is cell-based, mouse. Particulars: RAW264.7, 10, 30 or 100 μM, LPS 0.1 μg/ml 6 hours; greater than dexamethasone 1 μM, FIG. 7.
The next data set deals with COX-2. As to the kind of experiment: Inhibition of LPS-induced COX-2 production in RAW264.7 cells (Western blot). The class given is cell-based, mouse. Particulars: LPS-stimulated RAW264.7, 10, 30 or 100 μM, FIG. 8.
The subject of the next data set is iNOS. As to the kind of experiment: Inhibition of LPS-induced iNOS production in RAW264.7 cells (Western blot). The class given is cell-based, mouse. Particulars: RAW264.7, 10, 30 or 100 μM, FIG. 8.
A further data set concerns IL-1 beta. As to the kind of experiment: Inhibition of LPS-induced IL-1 beta production in RAW264.7 cells (ELISA). The class given is cell-based, mouse. Particulars: RAW264.7, 10, 30 or 100 μM, LPS 0.1 μg/ml 6 hours; same approximate magnitude as dexamethasone 1 μM, FIG. 6.
Where [9] appears, read: low dose 40 mg/kg oral twice daily for 14 days.

As a reminder, the IC50 is the concentration that gives 50% inhibition. A low value points to inhibition by little substance.

T1 sequence (Q14432 whole entry): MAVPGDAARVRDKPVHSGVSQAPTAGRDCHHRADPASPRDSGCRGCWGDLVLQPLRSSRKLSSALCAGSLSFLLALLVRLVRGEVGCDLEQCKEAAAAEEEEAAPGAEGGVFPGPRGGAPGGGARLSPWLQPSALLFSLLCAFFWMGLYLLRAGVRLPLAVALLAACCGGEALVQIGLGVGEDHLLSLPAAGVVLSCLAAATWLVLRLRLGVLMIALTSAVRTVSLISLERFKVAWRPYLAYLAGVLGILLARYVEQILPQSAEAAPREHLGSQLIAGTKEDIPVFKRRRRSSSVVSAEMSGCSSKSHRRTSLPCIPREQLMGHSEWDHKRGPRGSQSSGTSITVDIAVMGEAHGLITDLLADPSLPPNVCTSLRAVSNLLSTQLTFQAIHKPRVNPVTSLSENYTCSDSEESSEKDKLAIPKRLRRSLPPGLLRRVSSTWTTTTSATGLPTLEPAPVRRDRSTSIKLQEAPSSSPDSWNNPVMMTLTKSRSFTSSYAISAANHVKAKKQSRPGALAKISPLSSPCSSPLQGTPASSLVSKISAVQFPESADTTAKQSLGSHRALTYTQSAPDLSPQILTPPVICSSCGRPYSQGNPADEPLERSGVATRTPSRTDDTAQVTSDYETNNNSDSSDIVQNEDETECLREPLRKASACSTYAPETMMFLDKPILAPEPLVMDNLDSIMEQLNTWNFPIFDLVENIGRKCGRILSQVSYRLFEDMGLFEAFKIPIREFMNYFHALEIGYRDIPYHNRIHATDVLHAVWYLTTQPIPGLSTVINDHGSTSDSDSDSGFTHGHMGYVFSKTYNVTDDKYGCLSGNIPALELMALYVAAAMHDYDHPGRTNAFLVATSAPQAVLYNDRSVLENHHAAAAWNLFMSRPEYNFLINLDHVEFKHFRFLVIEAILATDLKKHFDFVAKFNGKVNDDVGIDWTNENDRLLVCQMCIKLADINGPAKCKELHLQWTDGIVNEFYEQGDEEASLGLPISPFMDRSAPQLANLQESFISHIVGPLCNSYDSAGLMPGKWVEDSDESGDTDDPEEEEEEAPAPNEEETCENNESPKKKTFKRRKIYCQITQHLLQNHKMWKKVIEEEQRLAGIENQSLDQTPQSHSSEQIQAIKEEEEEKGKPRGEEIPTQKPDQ

With `CN(C)C(=O)/C(=C/c1cccnc1)c1ccc(Oc2ccc(CCC(N)=O)cc2)cc1` [Compound 77, 2-{4-[4-(2-carbamoyl-ethyl)-phenoxy]-phenyl}-N,N-dimethyl-3-pyridin-3-yl-acrylamide], the “inhibition of LPS-induced TNF-alpha production in mice” value with TNF-alpha [1] is on record as “significantly inhibited”.
On to `COc1cc(/C=C(/C(=O)Nc2ccncc2)c2ccc(Oc3ccc(CCC(=O)NC(N)=O)cc3)cc2)cc(OC)c1` [Compound 60, 3-(3,5-dimethoxyphenyl)-2-{4-[4-(3-oxo-3-ureidopropyl)-phenoxy]-phenyl}-N-pyridin-4-ylacrylamide], for which, in the data set with 3T3-L1 adipocytes [2], the activity at 0.1 µM turned out to be 93%, the activity at 1 µM amounted to 120% and the activity at 10 µM came to 229%.
In the case of `COc1cc(/C=C(/C(=O)Nc2ccc(Cl)cc2)c2ccc(Oc3ccc(CCC(=O)NC(N)=O)cc3)cc2)cc(OC)c1` [Compound 61, N-(4-chlorophenyl)-3-(3,5-dimethoxyphenyl)-2-{4-[4-(3-oxo-3-ureidopropyl)-phenoxy]-phenyl}-acrylamide], in the data set with 3T3-L1 adipocytes [2], the activity at 0.1 µM was 93%, the activity at 1 µM is 120% and the activity at 10 µM came to 229%.
For `COc1cc(/C=C(/C(=O)N(C)C)c2ccc(Oc3ccc(CCC(=O)NC(N)=O)cc3)cc2)cc(OC)c1` [Compound 13, 3-(3,5-dimethoxyphenyl)-N,N-dimethyl-2-{4-[4-(3-oxo-3-ureido-propyl)-phenoxy]-phenyl}-acrylamide], the entries for the “Percent Inhibition of Enzyme Activity, PDE4” value in the data set with PDE4 (1 μM), in the data set with PDE4 (10 μM) and with PDE4 (30 μM) were 85%, 98% and 102%, respectively. Moreover, the half-maximal inhibitory concentration (IC50) was less than 1 µM at PDE4 (PDE4 from human U-937 promonocytic cells) and 13.6 µM on PDE3. The “inhibition of LPS/IFN-gamma induced phosphorylation of p44/42” value in the data set on p44/42 MAP kinase (30 μM and 10 μM, LPS 10 ng/ml / IFN-gamma 10 U/ml 15 min) is on record as “dose-dependent manner”. The “inhibition of LPS-induced phosphorylation of p44/42 MAP kinase” value in the data set on p44/42 MAP kinase (30 μM, LPS 10 ng/ml 15 min) was “inhibited”.
In the case of `COc1cc(/C=C(/C(=O)N2CCCCC2)c2ccc(Oc3ccc(CCC(=O)NC(N)=O)cc3)cc2)cc(OC)c1` [Compound 51, [3-(4-{4-[2-(3,5-dimethoxyphenyl)-1-(piperidine-1-carbonyl)-vinyl]-phenoxy}-phenyl)-propionyl]-urea], in the data set on 3T3-L1 adipocytes [2], the activity at 0.1 µM was 93%, the activity at 1 µM was 107% and the activity at 10 µM was determined as 136%. Also, in [3], the Cell viability entry was “* (Cell viability <70%)”.
Regarding `CCOC(=O)NC(=O)CCc1ccc(Oc2ccc(/C(=C\c3cc(OC)cc(OC)c3)C(=O)OC)cc2)cc1` [Compound 8, 3-(3,5-dimethoxyphenyl)-2-{4-[4-(3-ethoxycarbonylamino-3-oxo-propyl)-phenoxy]-phenyl}-acrylic acid methyl ester], in the data set with 3T3-L1 adipocytes [2], the activity at 0.1 µM is 115%, the activity at 1 µM worked out at 132% and the activity at 10 µM was found to be 171%.
As to `COc1cc(/C=C(/C(=O)N(C)C)c2ccc(Oc3ccc(CCC(N)=O)cc3)cc2)cc(OC)c1` [Compound 31, 2-{4-[4-(2-Carbamoylethyl)-phenoxy]-phenyl}-3-(3,5-dimethoxyphenyl)-N,N-dimethylacrylamide], in the data set on TNF-alpha [1], the “inhibition of LPS-induced TNF-alpha production in mice” value is “significantly inhibited”. For the same molecule, the hind limb histology result in the data set with DBA/1J mice (high dose 100 mg/kg oral twice daily for 14 days) was “reduction in incidence and severity of pannus formation, inflammation cell infiltration and bone/cartilage damage”. In addition, in the data set with DBA/1J mice (high dose 100 mg/kg oral twice daily for 14 days, about same extent as dexamethasone), the “arthritis clinical score (severity) compared with vehicle controls” value is listed as “prevented the increase in severity”. Further, in the data set with DBA/1J mice (setting [9]), the hind limb histology entry is “marked chronic inflammation of synovium with pannus formation and destruction of bone and cartilage”; the “arthritis clinical score (severity) compared with vehicle controls” value is recorded as “no apparent effect”. In addition, in the data set with 3T3-L1 adipocytes [2], the activity at 0.1 µM was found to be 107%, the activity at 1 µM amounted to 119% and the activity at 10 µM came out at 161%.
In the case of `COc1cc(/C=C(/C(=O)N(C)C)c2ccc(Oc3ccc(CCC(=O)N4CCOCC4)cc3)cc2)cc(OC)c1` [Compound 40, 3-(3,5-Dimethoxyphenyl)-N,N-dimethyl-2-{4-[4-(3-morpholin-4-yl-3-oxopropyl)-phenoxy]phenyl}-acrylamide], in the data set with 3T3-L1 adipocytes [2], the activity at 0.1 µM is 126%, the activity at 1 µM was 117% and the activity at 10 µM worked out at 126%.
Take `COc1cc(/C=C(/C(=O)N(C)C)c2ccc(Oc3ccc(CCC(=O)NCC(=O)N4CCOCC4)cc3)cc2)cc(OC)c1` [Compound 63, 3-(3,5-Dimethoxyphenyl)-N,N-dimethyl-2-(4-{4-[2-(2-morpholin-4-yl-2-oxoethylcarbamoyl)-ethyl]-phenoxy}-phenyl)-acrylamide]: in the data set on 3T3-L1 adipocytes [2], the activity at 0.1 µM was found to be 107%, the activity at 1 µM turned out to be 112% and the activity at 10 µM amounted to 139%.
For `COc1cc(/C=C(/C(=O)N(C)C)c2ccc(Oc3ccc(CCC(=O)N4CCN(C)CC4)cc3)cc2)cc(OC)c1` [Compound 64, 3-(3,5-dimethoxyphenyl)-N,N-dimethyl-2-(4-{4-[3-(4-methylpiperazin-1-yl)-3-oxopropyl]-phenoxy}-phenyl)-acrylamide] the same measures were 108%, 113% and 127%.
For `COC(=O)NCc1ccc(Oc2ccc(/C(=C\c3cc(OC)cc(OC)c3)C(=O)N(C)C)cc2)cc1` [Compound 29, (4-{4-[2-(3,5-dimethoxyphenyl)-1-dimethylcarbamoyl-vinyl]-phenoxy}-benzyl)-carbamic acid methyl ester] the same measures were 106%, 124% and 120%.
With `CC(=O)NC(=O)CCc1ccc(Oc2ccc(/C(=C\c3ccc(F)cc3)C(=O)N(C)C)cc2)cc1` [Compound 56, 2-{4-[4-(3-acetylamino-3-oxopropyl)-phenoxy]-phenyl}-3-(4-fluorophenyl)-N,N-dimethylacrylamide], in the data set on 3T3-L1 adipocytes [2], the activity at 0.1 µM amounted to 83%, the activity at 1 µM is 100% and the activity at 10 µM is 126%.
As to `COC(=O)C(=Cc1cc(OC)cc(OC)c1)c1ccc(Oc2ccc(CCC(=O)NC(N)=O)cc2)cc1` [Compound 1, 3-(3,5-dimethoxyphenyl)-2-{4-[4-(3-oxo-3-ureidopropyl)-phenoxy]-phenyl}-acrylyc acid methyl ester], in the data set with 3T3-L1 adipocytes [4], the “stimulation of glucose uptake by insulin” value is reported as “enhanced”. For the same molecule, the glucose uptake result with 3T3-L1 adipocytes [5] is on record as “dose-dependent increase”. Moreover, the “decrease in blood glucose levels” value with ob/ob mice [6] (day 6, versus vehicle) is given as 36%. Further, the “decrease in blood glucose levels” value in the data set with ob/ob mice [6] (day 8, versus vehicle) is reported as 23%. Moreover, in the data set with TNF-alpha [7], the “inhibition of LPS-induced production of TNF-alpha” value was “significantly inhibited”. Further, in the data set with ob/ob mice [8], the “decrease in free fatty acids” value is given as 19% and the “decrease in serum triglycerides” value is 49%. For the same molecule, the “inhibition of production of COX-1” value in the data set with COX-1 is reported as “but not COX-1”. The “inhibition of LPS-induced production of IL-6” value in the data set with IL-6 is on record as “significantly inhibited”. In addition, the “inhibition of production of COX-2” value in the data set with COX-2 is listed as “selectively inhibited”. Moreover, the “inhibition of LPS-induced iNOS production” value with iNOS is listed as “dose-dependent inhibition”. The “inhibition of LPS-induced production of IL-1 beta” value in the data set with IL-1 beta is on record as “significantly inhibited”.

The record behind these values is US7323496B2, “Compounds for treatment of inflammation, diabetes and related disorders” (Theracos, Inc., priority 1999, dated 2008).
